Test results reported in paper PMC8776094, “Reactive Oxygen Species Production Is Responsible for Antineoplastic Activity of Osmium, Ruthenium, Iridium and Rhodium Half-Sandwich Type Complexes with Bidentate Glycosyl Heterocyclic Ligands in Various Cancer Cell Models” (International Journal of Molecular Sciences, 2022).
Several values for one entry are separate records, joined by “and”; a condition that tells them apart may be missing. Equal entries are not always repeated.

Columns and labels:
[1] = tested on: Capan2, a pancreatic adenocarcinoma cell line; parameters: method as in PMID 34638791; conditions: SRB assay, 48 h; data previously published; cited from earlier work
[2] = tested on: human primary fibroblasts; parameters: method as in PMID 34638791; conditions: SRB assay, 48 h, data previously published, cited from earlier work
[3] = tested on: A2780 ovarian cancer cells; parameters: method as in PMID 34638791; conditions: SRB assay, 48 h; data previously published; cited from earlier work
[4] = tested on: ID8 ovarian cancer cell line; parameters: method as in PMID 34638791; conditions: SRB assay, 48 h; data previously published; cited from earlier work
[5] = parameters: method as in PMID 34638791; conditions: data previously published; cited from earlier work
[6] = tested on: human primary fibroblasts; experiment: SRB assay, 48 h, cytostasis, primary fibroblasts; type: cell-based; conditions: MTT 4 h and SRB 48 h
Procedure: The compounds were tested between 0.001694 and 33.3333 µM, using a 4-hour-long MTT test to assess rapid toxicity and a 48-hour-long SRB assay to assess the long-term effects of the inhibition of proliferation (cytostasis). The MTT assay assesses the activity of mitochondrial complex I and detects rapid, direct toxicity, as well as indicating apoptosis and necrosis. The SRB assay measures the total protein content that is proportional to cell numbers; therefore, the assay can detect changes in cell numbers and can thus be used as a readout for cell proliferation. The SRB assay was performed after 48 h of treatment (with the exception of L428 cells, which were tested for 96 h due to their slower proliferation rate). In this setting, the SRB assay informs us of long-term changes to cell proliferation. We assessed the maximal inhibition within that concentration range, and descriptive statistics were performed. We performed a one-way ANOVA, followed by the Kruskal–Wallis test, regardless of the normal or non-normal distribution of the data. […]
The assay was performed similarly to the method used in [73]. […] Plates were measured in a plate photometer (Thermo Scientific Multiscan GO spectrophotometer, Waltham, MA, USA) at 540 nm. […] In calculations, the readings for these wells were considered as 1 and all readings were expressed relative to these values. […]

[7] = tested on: ID8 ovarian cancer cell line; experiment: SRB assay, 48 h, cytostasis, ID8; type: cell-based; conditions: 48 h treatment
Procedure: (§1) The compounds were tested between 0.001694 and 33.3333 µM, using a 4-hour-long MTT test to assess rapid toxicity and a 48-hour-long SRB assay to assess the long-term effects of the inhibition of proliferation (cytostasis). The MTT assay assesses the activity of mitochondrial complex I and detects rapid, direct toxicity, as well as indicating apoptosis and necrosis. The SRB assay measures the total protein content that is proportional to cell numbers; therefore, the assay can detect changes in cell numbers and can thus be used as a readout for cell proliferation. The SRB assay was performed after 48 h of treatment (with the exception of L428 cells, which were tested for 96 h due to their slower proliferation rate). In this setting, the SRB assay informs us of long-term changes to cell proliferation. We assessed the maximal inhibition within that concentration range, and descriptive statistics were performed. We performed a one-way ANOVA, followed by the Kruskal–Wallis test, regardless of the normal or non-normal distribution of the data. Due to the large number of significance values, the results of the significance calculations are provided in an Excel spreadsheet at https://figshare.com/s/28d14597d5041f08eb08 (accessed on 6 January 2022), among other primary data of the study. Where possible, nonlinear regression was performed on the curves to determine the IC50 values ((inhibitor) vs. response—variable slope (four parameters) method with Graphpad v8.0.1). […] In Table 5, we added the IC50 values that we determined for a set of 4 active ruthenium half-sandwich complexes we identified previously, to be used in subsequent structure-activity relationship (SAR) analyses.
ID8 cells were cultured in a high-glucose DMEM (4.5 g/L glucose) medium, supplemented with 4% fetal calf serum, 2 mM glutamine, 1% penicillin-streptomycin, and 1% ITS supplement (I3146).
(§2) The assay was performed similarly to the method used in [73]. Cells were seeded in 96-well plates the day before the assay. Cells were treated with the compounds for 48 h, with the exception of L428, where 96 h of treatment was applied. Cells were fixed with 10% trichloroacetic acid (TCA). Fixed cells were washed in distilled water 3 times, followed by staining with SRB (0.4 m/V% dissolved in 1% acetic acid) for 10 min. The stained cells were washed in 1% acetic acid 5 times; the acetic acid was removed, and the cells were left to dry. Protein-bound SRB was released by adding 100 µL 10 mM Tris base. Plates were measured in a plate photometer (Thermo Scientific Multiscan GO spectrophotometer, Waltham, MA, USA) at 540 nm. On each plate, wells were designed to contain untreated cells. In calculations, the readings for these wells were considered as 1 and all readings were expressed relative to these values.
(§3) Statistical analysis was performed using the 8.0.1 version of Graphpad Prism. Values were tested for normal distribution, using the d’Agostino and Pearson normality test. When necessary, values were log-normalized or were normalized using the Box-Cox normalization method or using a two-step transformation, as indicated in the figure captions. Nonlinear regression was performed using the built-in “[Inhibitor] vs. Response—Variable slope (four parameters), least-square fit” utility of Graphpad, yielding the IC50 and Hill slope values.

[8] = tested on: A2780 ovarian cancer cells; experiment: SRB assay, 48 h, cytostasis, A2780; type: cell-based; conditions: 48 h treatment
Procedure: as §1
A2780 cells were cultured in RMPI 1640 medium, supplemented with 10% fetal calf serum, 2 mM glutamine, and 1% penicillin-streptomycin.
as §2, §3

| Compound | Capan2 Max. Inh. (%) [1] | IC50 [1] | Fibroblast Max. Inh. (%) ([2]; ND = not detected) | IC50 ([2]; read-out: Fibroblast IC50) | A2780 Max. Inh. (%) [3] | IC50 [3] | IC50 [4] | ID8 Max. Inh. (%) [4] | LogD [5] | cytotoxic or cytostatic activity on fibroblasts (in words) [6] | cytostatic activity on ID8 cells, SRB assay (in words) [7] | cytostatic activity on A2780 cells in SRB assay (in words) [8] |
| --- | --- | --- | --- | --- | --- | --- | --- | --- | --- | --- | --- | --- |
| Cc1ccc(C(C)C)cc1.F[P-](F)(F)(F)(F)F.O=C(OC1COC(c2nnc(-c3ccccn3)o2)C(OC(=O)c2ccccc2)C1OC(=O)c1ccccc1)c1ccccc1.[Cl][Ru+] (mixture of isomers) [Ru-5] | 100% | 4.97 µM | 80% | 24.6 µM | 100% | 8.5 µM and 8.54 µM | 6.76 µM | 100% | 2.04 | – | – | – |
| Cc1c(C)c(C)[c-](C)c1C.Cc1c(C)c(C)[c-](C)c1C.[Cl-].[Cl-].[Cl-].[Cl-].[Ir+3].[Ir+3] [Ir-dimer, dichloro(pentamethylcyclopentadienyl)iridium(III) dimer] | – | – | – | – | – | – | – | – | – | None of the complexes, Ir-1‒Ir-12, or the Ir-dimer exerted cytotoxic or cytostatic activity on fibroblasts | inactive | inactive |
| dichloro(pentamethylcyclopentadienyl)rhodium(III) dimer [Rh-dimer] | – | – | – | – | – | – | – | – | – | None of the complexes Rh-3‒Rh-6 or the Rh-dimer exerted cytotoxic or cytostatic activity on fibroblasts | inactive | inactive |
